In series [1] the test system is MCF7 adenocarcinoma cell line. Briefly: Cell proliferation studies in MCF7 cells (ATP-Lite, 10 days). It is filed as cell-based. The conditions noted are these: Homo sapiens, 240 h, read-out: PROLIFERATION_CTG_MCF7 IC50. Summed up:
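Cells were seeded at 100 or 200 per well in DMEM with 10% FBS and dosed in quadruplicate over a 9-point 3-fold dilution. Incubation lasted 10 days at 37 °C, with media exchange and re-dosing on day 5. Viability was read by ATP-Lite luminescence and normalised to background and DMSO, giving IC50.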

In another series the target is CDK6/Cyclin D1 (Homo sapiens (Human), UniProt Q00534). Briefly: CDK6/CyclinD1 enzymatic activity assay (TR-FRET). Format: biochemical. The settings on record: ATP 250 μM, read-out: CDK6_D1 IC50. Summed up:
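Insect-cell-expressed CDK6/Cyclin D1 (1 nM) phosphorylated ULight-4E-BP1 (100 nM) with 250 μM ATP in HEPES pH 7.4 buffer. After 20 min compound preincubation, reactions were started with 10 mM MgCl2 and run 60 min at 37 °C. EDTA-quenched samples were read by TR-FRET with Eu-anti-P-4E-BP1; IC50 from 9-dose 4-parameter fits.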
(In general: TR-FRET usually uses a lanthanide donor and a delayed reading to cut background.)

Series [2] is described as follows: Brain-to-plasma ratio (Kp) determination in Sprague-Dawley rats. The settings on record: male, rat, po, 10 mg/kg.
Method: The brain-to-plasma ratio (Kp) was determined in male Sprague-Dawley rats (7-9 weeks old) four hours after a single oral dose. Rats were acclimated and given free access to standard rodent chow and water throughout the entire study. Test articles were formulated as a solution at 0.3, 0.4, 0.5, or 1.0 mg/mL in a vehicle comprised of 10:15:75 (v:v:v) dimethylacetamide (DMA):Solutol HS15:water and delivered orally at a rate of 10 mL/kg to three rats to achieve final doses of 3, 4, 5, or 10 mg/kg, respectively. At 4 hours post-dose, blood samples were collected via jugular vein cannula into tubes containing K2EDTA as the anticoagulant and stored on ice. Blood samples were then centrifuged at 4° C. at 6000 rpm for 5 minutes, and the resulting plasma was placed into tubes and stored frozen at −80° C. until analysis. Whole brain samples were also collected at 4 hours post-dose. The weight of each brain was measured and recorded, and samples were immediately stored on dry ice. Brain samples were then transferred to storage at −80° C. until analysis.
Prior to analysis, brain samples were combined with water (4 mL/1 gram of brain) and homogenized. Prior to injection, plasma and brain homogenate samples and standards were prepared for analysis by precipitation with acetonitrile or 1:1 (v:v) methanol:acetonitrile. Samples were then thoroughly mixed, centrifuged at 4000 rpm for 15 minutes, and the resulting supernatant was transferred for analysis. Test article concentrations in plasma and brain homogenate were then determined by LC-MS/MS and quantified against calibration standards prepared to known concentrations in matched blank (analyte-free) biological matrix. The Kp was then determined by dividing the dilution-corrected brain concentration by the plasma concentration from each rat. A brain density of 1 gram/mL was assumed for all calculations.
In a further series the target is CDK4/Cyclin D1 (Homo sapiens (Human), UniProt P11802). Briefly: CDK4/CyclinD1 enzymatic activity assay (TR-FRET). The conditions noted are these: ATP 2 mM, read-out: CDK4_D1 IC50. Format: biochemical. The essentials:
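Insect-cell CDK4/Cyclin D1 (1 nM) with ULight-4E-BP1 (100 nM) and 2 mM ATP in HEPES pH 7.4 buffer, preincubated 20 min with compound (9-dose, 3-fold dilutions); 10 mM MgCl2 started the reaction, run 60 min at 37 °C. EDTA/Eu-anti-phospho-4E-BP1 TR-FRET detection; IC50 from 4-parameter Hill fit.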

Where [3] appears, read: brain (homogenate) versus plasma.

Consider 15 compounds from patent US11685744B2, “CDK inhibitors and their use as pharmaceuticals” (Prelude Therapeutics, Incorporated, priority 2020, dated 2023).

Each structure is given as a SMILES string.

CDK4/Cyclin D1, sequence (P11802 whole entry): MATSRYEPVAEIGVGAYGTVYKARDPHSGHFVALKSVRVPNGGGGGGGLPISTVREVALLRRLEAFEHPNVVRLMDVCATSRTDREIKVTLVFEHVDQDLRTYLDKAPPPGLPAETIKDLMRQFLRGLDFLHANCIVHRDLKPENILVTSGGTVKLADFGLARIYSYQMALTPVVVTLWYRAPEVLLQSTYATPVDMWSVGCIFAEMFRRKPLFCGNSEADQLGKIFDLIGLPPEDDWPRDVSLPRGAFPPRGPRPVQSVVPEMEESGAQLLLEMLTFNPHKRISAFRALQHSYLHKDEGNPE
CDK4/Cyclin D1, sequence (P24385 whole entry partner): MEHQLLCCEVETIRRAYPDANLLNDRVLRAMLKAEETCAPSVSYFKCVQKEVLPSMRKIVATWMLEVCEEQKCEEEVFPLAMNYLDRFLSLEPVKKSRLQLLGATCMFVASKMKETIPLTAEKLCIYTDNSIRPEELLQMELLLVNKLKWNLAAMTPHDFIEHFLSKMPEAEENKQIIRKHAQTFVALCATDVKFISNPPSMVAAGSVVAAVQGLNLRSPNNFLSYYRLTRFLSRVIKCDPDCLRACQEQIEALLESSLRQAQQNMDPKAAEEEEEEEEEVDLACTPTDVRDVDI
CDK6/Cyclin D1, sequence (Q00534 whole entry): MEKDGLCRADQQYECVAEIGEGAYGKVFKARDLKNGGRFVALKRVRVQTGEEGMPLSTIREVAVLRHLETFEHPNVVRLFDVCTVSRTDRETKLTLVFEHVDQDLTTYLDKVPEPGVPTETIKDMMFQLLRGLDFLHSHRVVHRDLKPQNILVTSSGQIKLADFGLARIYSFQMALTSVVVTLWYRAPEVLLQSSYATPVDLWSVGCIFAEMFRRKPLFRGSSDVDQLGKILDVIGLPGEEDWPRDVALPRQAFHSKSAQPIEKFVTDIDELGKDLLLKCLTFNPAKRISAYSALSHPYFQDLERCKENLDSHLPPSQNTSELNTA
CDK6/Cyclin D1, sequence (P24385 whole entry partner): as the sequence (P24385 whole entry partner) above

Turning to `Cc1c(-c2nc(Nc3ccc(C4CCCN(C)C4)cn3)ncc2F)sc2c(C(C)C)cn(C)c(=O)c12` (stereo not drawn) [Example 88, 2-(5-Fluoro-2-((5-(1-methylpiperidin-3-yl)pyridin-2-yl)amino)pyrimidin-4-yl)-7-isopropyl-3,5-dimethylthieno[3,2-c]pyridin-4(5H)-one], the IC50 in series [1] was 20 to 200 nM; at CDK6/Cyclin D1, 20 to 200 nM; on CDK4/Cyclin D1, not above 20 nM. Further, the Kp (commonly the ratio of the level in a tissue or fluid to that in plasma or blood) at 4 h in series [2] (setting [3]) is 1 to 3.

As to `Cc1c(-c2nc(Nc3ccc(N4CCN(C(C)C)CC4)cn3)ncc2F)sc2c(C(C)C)cn(C)c(=O)c12` [Example 89, 2-(5-Fluoro-2-((5-(4-isopropylpiperazin-1-yl)pyridin-2-yl)amino)pyrimidin-4-yl)-7-isopropyl-3,5-dimethylthieno[3,2-c]pyridin-4(5H)-one], the IC50 is 20 to 200 nM in series [1], not above 20 nM on CDK6/Cyclin D1 and not above 20 nM on CDK4/Cyclin D1. In addition, in series [2] (setting [3]), the Kp at 4 h was more than 3.

For `CCN1CCN(Cc2ccc(Nc3ncc(F)c(-c4sc5c(C(C)C)cn(C)c(=O)c5c4C)n3)nc2)CC1` [Example 90, 2-(2-((5-((4-Ethylpiperazin-1-yl)methyl)pyridin-2-yl)amino)-5-fluoropyrimidin-4-yl)-7-isopropyl-3,5-dimethylthieno[3,2-c]pyridin-4(5H)-one], the IC50 in series [1] was 20 to 200 nM; at CDK6/Cyclin D1, 20 to 200 nM; on CDK4/Cyclin D1, not above 20 nM. For the same compound, the Kp at 4 h in series [2] (setting [3]) was less than 1.

On to `Cc1c(-c2nc(Nc3ccc(N4CCC5(CC4)CN(C)C5)cn3)ncc2F)sc2c(C(C)C)cn(C)c(=O)c12` [Example 91, 2-(5-Fluoro-2-((5-(2-methyl-2,7-diazaspiro[3.5]nonan-7-yl)pyridin-2-yl)amino)pyrimidin-4-yl)-7-isopropyl-3,5-dimethylthieno[3,2-c]pyridin-4(5H)-one], for which the IC50 in series [1] is 20 to 200 nM; on CDK6/Cyclin D1, not above 20 nM; at CDK4/Cyclin D1 it was not above 20 nM. For the same compound, in series [2] (setting [3]), the Kp at 4 h is less than 1.

In the case of `Cc1c(-c2nc(Nc3ccc(C4CCN(C)CC4)nn3)ncc2F)sc2c(C(C)C)cn(C)c(=O)c12` [Example 93, 2-(5-Fluoro-2-((6-(1-methylpiperidin-4-yl)pyridazin-3-yl)amino)pyrimidin-4-yl)-7-isopropyl-3,5-dimethylthieno[3,2-c]pyridin-4(5H)-one], the IC50 in series [1] was 20 to 200 nM; on CDK6/Cyclin D1 it was 20 to 200 nM; on CDK4/Cyclin D1, not above 20 nM. Further, in series [2] (setting [3]), the Kp at 4 h is less than 1.

With `Cc1c(-c2nc(Nc3ccc(C4CCN(C(C)C)C4)cn3)ncc2F)sc2c(C(C)C)cn(C)c(=O)c12` (stereo not drawn) [Example 95, 2-(5-Fluoro-2-((5-(1-isopropylpyrrolidin-3-yl)pyridin-2-yl)amino)pyrimidin-4-yl)-7-isopropyl-3,5-dimethylthieno[3,2-c]pyridin-4(5H)-one], the IC50 in series [1] was 20 to 200 nM; at CDK6/Cyclin D1, 20 to 200 nM; on CDK4/Cyclin D1, not above 20 nM. Besides, in series [2] (setting [3]), the Kp at 4 h lay within 1 to 3.

Take `Cc1cnc(Nc2ccc(C3CCN(C)CC3)cn2)nc1-c1cc2c(=O)n(C)cc(C(C)C)c2s1` [Example 97, 7-Isopropyl-5-methyl-2-(5-methyl-2-((5-(1-methylpiperidin-4-yl)pyridin-2-yl)amino)pyrimidin-4-yl)thieno[3,2-c]pyridin-4(5H)-one]: the IC50 (in series [1]; at CDK6/Cyclin D1; at CDK4/Cyclin D1) was not above 20 nM throughout. The Kp at 4 h in series [2] (setting [3]) was less than 1.

Regarding `CC(C)c1c2sc(-c3nc(Nc4ccc(C5CCN(C)CC5)cn4)ncc3F)cc2nn1C` [Example 99, 5-Fluoro-4-(3-isopropyl-2-methyl-2H-thieno[3,2-c]pyrazol-5-yl)-N-(5-(1-methylpiperidin-4-yl)pyridin-2-yl)pyrimidin-2-amine], the IC50 was 20 to 200 nM in series [1], 20 to 200 nM at CDK6/Cyclin D1 and not above 20 nM at CDK4/Cyclin D1. Further, in series [2] (setting [3]), the Kp at 4 h is more than 3.

For the compound `CCN1CCN(c2ccc(Nc3ncc(F)c(-c4sc5c(C(C)(O)C(F)(F)F)n(C)nc5c4C)n3)nc2)CC1` (stereo not drawn) [Example 102, 2-(5-(2-((5-(4-Ethylpiperazin-1-yl)pyridin-2-yl)amino)-5-fluoropyrimidin-4-yl)-2,6-dimethyl-2H-thieno[3,2-c]pyrazol-3-yl)-1,1,1-trifluoropropan-2-ol], the results for the IC50 (in series [1]; at CDK6/Cyclin D1; at CDK4/Cyclin D1) were 20 to 200 nM, not above 20 nM and not above 20 nM, respectively. Moreover, in series [2] (setting [3]), the Kp at 4 h fell in the range of 1 to 3.

In the case of `CCN1CC2(CC(c3ccc(Nc4ncc(F)c(-c5cc6nc(C)n(C(C)C)c6s5)n4)nc3)C2)C1` [Example 112, N-(5-(2-Ethyl-2-azaspiro[3.3]heptan-6-yl)pyridin-2-yl)-5-fluoro-4-(3-isopropyl-2-methyl-3H-thieno[2,3-d]imidazol-5-yl)pyrimidin-2-amine], the IC50 in series [1] is 20 to 200 nM; on CDK6/Cyclin D1, 20 to 200 nM; on CDK4/Cyclin D1, not above 20 nM. Also, the Kp at 4 h in series [2] (setting [3]) is less than 1.

With `Cc1nc2cc(-c3nc(Nc4ccc(OC5CCN(C)C5)cn4)ncc3F)sc2n1C(C)C` (stereo not drawn) [Example 114, 5-Fluoro-4-(2-methyl-3-propan-2-ylthieno[2,3-d]imidazol-5-yl)-N-[5-(1-methylpyrrolidin-3-yl)oxypyridin-2-yl]pyrimidin-2-amine], the IC50 in series [1] was 20 to 200 nM; on CDK6/Cyclin D1, 20 to 200 nM; on CDK4/Cyclin D1 it was not above 20 nM. Further, the concentration ratio (Kp) at 4 h in series [2] (brain / plasma) is 1 to 3.

Consider `Cc1nc2cc(-c3nc(Nc4ccc(C5CCN(C)CC5)cn4)ncc3C(F)(F)F)sc2n1C(C)C` [Example 120, 4-(3-Isopropyl-2-methyl-3H-thieno[2,3-d]imidazol-5-yl)-N-(5-(1-methylpiperidin-4-yl)pyridin-2-yl)-5-(trifluoromethyl)pyrimidin-2-amine], for which the IC50 in series [1] was 20 to 200 nM; on CDK6/Cyclin D1 it was not above 20 nM; on CDK4/Cyclin D1 it was not above 20 nM. In addition, in series [2] (setting [3]), the partition ratio (Kp) at 4 h lay within 1 to 3.

As to `Cc1c(-c2nc(Nc3ccc(C4CCN(C)CC4)cn3)ncc2F)sc2c(C(C)C)cncc12` [Example 123, 5-Fluoro-N-[5-(1-methylpiperidin-4-yl)pyridin-2-yl]-4-(3-methyl-7-propan-2-ylthieno[3,2-c]pyridin-2-yl)pyrimidin-2-amine], the IC50 in series [1] was 20 to 200 nM; on CDK6/Cyclin D1 it was 20 to 200 nM; on CDK4/Cyclin D1, not above 20 nM. Further, in series [2] (setting [3]), the Kp at 4 h is more than 3.

Regarding `CCN1CCN(Cc2ccc(Nc3ncc(F)c(-c4sc5c(ncn5C(C)C)c4C)n3)nc2)CC1` [Example 124, N-[5-[(4-Ethylpiperazin-1-yl)methyl]pyridin-2-yl]-5-fluoro-4-(6-methyl-3-propan-2-ylthieno[2,3-d]imidazol-5-yl)pyrimidin-2-amine], the IC50 was 20 to 200 nM in series [1], not above 20 nM at CDK6/Cyclin D1 and not above 20 nM at CDK4/Cyclin D1. Moreover, the Kp at 4 h in series [2] (setting [3]) lay in the range of 1 to 3.

In the case of `CCN1CCC(c2ccc(Nc3ncc(F)c(-c4sc5c(ncn5C(C)C)c4C)n3)nc2)CC1` [Example 128, N-(5-(1-Ethylpiperidin-4-yl)pyridin-2-yl)-5-fluoro-4-(3-isopropyl-6-methyl-3H-thieno[2,3-d]imidazol-5-yl)pyrimidin-2-amine], the IC50 (in series [1]; on CDK6/Cyclin D1; on CDK4/Cyclin D1) was not above 20 nM each time. In addition, the Kp at 4 h in series [2] (setting [3]) lay in the range of 1 to 3.
